Key:
Type in all cases: functional, cell-based
HeLa = assay: In vitro concentration required to reduce cell number to 50% in human cervical carcinoma (HeLa) culture
PC-3 = assay: In vitro concentration required to reduce cell number to 50% in human postrate carcinoma (PC-3) culture
HT-29 = assay: In vitro concentration required to reduce cell number to 50% in human colon carcinoma (HT-29) culture

IC50 (HeLa) [µM]	IC50 (PC-3) [µM]	IC50 (HT-29) [µM]	SMILES
6.09	4.22	3.11	Cc1nc2c(cc3c4c(cccc42)C(=O)N(CCN2CCCC2)C3=O)[nH]1
3.49	> 100	1.08	Cc1nc2c(cc3c4c(cccc42)C(=O)N(CCNCCNCCN2C(=O)c4cccc5c4c(cc4nc(C)[nH]c45)C2=O)C3=O)[nH]1
2.35	10.4	0.94	Cc1nc2cc3c4c(cccc4c2[nH]1)C(=O)N(CCN(C)C)C3=O
4.45	> 100	17.5	Cc1nc2cc3c4c(cccc4c2[nH]1)C(=O)N(CCN(C)CCN1C(=O)c2cccc4c2c(cc2nc(C)[nH]c24)C1=O)C3=O
8.26	> 100	8.5	Cc1nc2c(cc3c4c(cccc42)C(=O)N(CCNCCCNCCN2C(=O)c4cccc5c4c(cc4nc(C)[nH]c45)C2=O)C3=O)[nH]1
8.75	744	15	Cc1nc2c(cc3c4c(cccc42)C(=O)N(CCCNCCNCCCN2C(=O)c4cccc5c4c(cc4nc(C)[nH]c45)C2=O)C3=O)[nH]1

The remaining lines, values behind:

SMILES	IC50 (HeLa) [µM]	IC50 (PC-3) [µM]	IC50 (HT-29) [µM]
Cc1nc2cc3c4c(cccc4c2[nH]1)C(=O)N(CCCN(C)CCCN1C(=O)c2cccc4c2c(cc2nc(C)[nH]c24)C1=O)C3=O	> 100	36.3	> 100
Cc1nc2cc3c4c(cccc4c2[nH]1)C(=O)N(CCN(C)CCCN(C)CCN1C(=O)c2cccc4c2c(cc2nc(C)[nH]c24)C1=O)C3=O	0.8	3.22	0.32
Cc1nc2cc3c4c(cccc4c2[nH]1)C(=O)N(CCN(C)CCN(C)CCN1C(=O)c2cccc4c2c(cc2nc(C)[nH]c24)C1=O)C3=O	8.62	> 100	3.83
CN(C)CCN1C(=O)c2cccc3cc(N)cc(c23)C1=O [AMONAFIDE]	2.73	6.38	4.67
O=C1c2cccc3cccc(c23)C(=O)N1CCNCCCNCCN1C(=O)c2cccc3cccc(c23)C1=O [ELINAFIDE]	0.07	0.32	0.017
